Values of other authors, collected in US20250366801A1, “ESTIMATION OF CEREBROVASCULAR RESERVE” (MedTrace Pharma A/S, priority 2024, published 2025).

Settings: single standard dose of 1000 mg intravenously; patients with atherosclerotic cerebrovascular disease (Vagal 2009)

## CC(=O)Nc1nnc(S(N)(=O)=O)s1 [Acetazolamide, acetazolamide]
  time of peak cerebral blood flow augmentation after the intravenous bolus injection: 10 to 15 min
